Target: T1, full-length beta-catenin (Axin site) (Homo sapiens, UniProt P35222)
T1 construct: 15 nM full-length beta-catenin, 20 nM FITC labeled peptide in buffer
T1 sequence (P35222 1-781): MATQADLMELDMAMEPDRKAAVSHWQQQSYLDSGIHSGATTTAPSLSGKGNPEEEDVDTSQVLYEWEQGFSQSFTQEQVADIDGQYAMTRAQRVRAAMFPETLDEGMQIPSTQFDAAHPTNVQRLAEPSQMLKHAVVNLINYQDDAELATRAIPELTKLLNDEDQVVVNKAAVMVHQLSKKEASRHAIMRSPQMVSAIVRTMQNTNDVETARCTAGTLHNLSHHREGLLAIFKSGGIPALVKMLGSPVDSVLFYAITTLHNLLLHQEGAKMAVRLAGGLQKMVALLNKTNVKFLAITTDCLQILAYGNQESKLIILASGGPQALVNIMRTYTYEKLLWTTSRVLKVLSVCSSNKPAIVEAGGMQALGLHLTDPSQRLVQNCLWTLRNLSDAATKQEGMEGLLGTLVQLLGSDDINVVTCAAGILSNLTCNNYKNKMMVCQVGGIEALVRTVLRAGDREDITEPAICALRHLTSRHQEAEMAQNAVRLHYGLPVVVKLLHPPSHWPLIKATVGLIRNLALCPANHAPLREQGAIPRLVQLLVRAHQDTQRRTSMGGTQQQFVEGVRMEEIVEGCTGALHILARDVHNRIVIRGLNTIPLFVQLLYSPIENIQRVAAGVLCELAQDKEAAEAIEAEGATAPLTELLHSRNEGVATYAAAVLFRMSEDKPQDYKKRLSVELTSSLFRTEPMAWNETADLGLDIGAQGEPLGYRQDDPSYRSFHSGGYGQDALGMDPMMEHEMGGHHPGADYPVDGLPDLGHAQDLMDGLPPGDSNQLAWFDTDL
Test: Competition fluorescence polarization assay (Axin site probe)
Assay type: binding
Conditions: competition fluorescence polarization, Table 2; read-out: in vitro FP EC50
Experimental: FIG. 1. […] Peptide solutions were prepared in buffer (50 mM Tris pH 8.0, 250 mM NaCl, 2% glycerol, 0.5 mM EDTA, 0.02% w/v sodium azide) using a 3-fold serial dilution from 5 μM. Probe solution (15 nM full-length 13-Catenin, 20 nM FITC labeled peptide (FITC-PEG1-PQ-S5-ILD-S5-HVRRVWR (SEQ ID NO: 1) (hydrocarbon staple formed by two S5 via olefin metathesis)) in buffer) was prepared and incubated for 5 minutes, then 40 μL per well plated in a black polystyrene 384-well plate (Corning). Equal volume of the titrated peptide was added to the plate and incubated protected from light for 15 minutes prior to read. Reads were performed on a Spectramax M5 (Molecular Devices) in duplicate.
FIG. 7. […] BCL9 Competition FP assay: Peptide solutions were prepared in buffer (50 mM Tris pH 8.0, 250 mM NaCl, 2% glycerol, 0.5 mM EDTA, 0.02% w/v sodium azide) using a 3-fold serial dilution from 10 μM. Probe solution (250 nM full-length beta-catenin, 20 nM 5FAM labeled peptide in buffer) was prepared and 40 μL per well plated in a black polystyrene 384-well plate (Corning). Equal volume of the titrated peptide was added to the plate and incubated protected from light for 15 minutes prior to read. Reads were performed on a Spectramax M5 (Molecular Devices) in duplicate. Probe: Ac-[…]nLeu-Leu-2NapA-bala-bala-Lys5FAM-NH2 (SEQ ID NO: 2) (from Biochemistry, 2009, 48 (40), pp 9534-9541). Axin Competition FP assay: Peptide solutions were prepared in buffer (50 mM Tris pH 8.0, 250 mM NaCl, 2% glycerol, 0.5 mM EDTA, 0.02% w/v sodium azide) using a 3-fold serial dilution from 5 μM. Probe solution (15 nM full-length beta-catenin, 20 nM FITC labeled peptide in buffer) was prepared and incubated for 5 minutes, then 40 μL per well plated in a black polystyrene 384-well plate (Corning). Equal volume of the titrated peptide was added to the plate and incubated protected from light for 15 minutes prior to read. Reads were performed on a Spectramax M5 (Molecular Devices) in duplicate. Probe: FITC-StAx-33 from Grossmann et al. PNAS 109 17942-17947.

| SMILES | EC50 [µM] |
| --- | --- |
| CC[C@H](C)[C@@H]1NC(=O)[C@H](Cc2ccccn2)NC(=O)[C@H](C)NC(=O)[C@H](CC(=O)O)NC(=O)[C@H](CC(C)C)NC(=O)[C@H]([C@@H](C)CC)NC(=O)[C@](C)(NC(=O)[C@H](C)NC(C)=O)CCCCCCC=CCOC(=O)N2CC[C@@](C(=O)N[C@@H](CCC(N)=O)C(=O)N[C@H](C(=O)N[C@@H](Cc3c[nH]c4ccccc34)C(N)=O)C(C)C)(C2)NC1=O (single isomer, unassigned) [FP0559c Isomer 2, Ac-A-R8-I-L-D-A-2pyr-I-MB-Q-V-W-NH2] | > 5 |
| CC[C@H](C)[C@@H]1NC(=O)[C@H](Cc2ccccn2)NC(=O)[C@H](C)NC(=O)[C@H](CC(=O)O)NC(=O)[C@H](CC(C)C)NC(=O)[C@H]([C@@H](C)CC)NC(=O)[C@](C)(NC(=O)[C@H](C)NC(C)=O)CCCCCCC=CCOC(=O)N2CC[C@@](C(=O)N[C@@H](CO)C(=O)N[C@H](C(=O)N[C@@H](Cc3c[nH]c4ccccc34)C(N)=O)C(C)C)(C2)NC1=O (single isomer, unassigned) [FP0560c Isomer 1, Ac-A-R8-I-L-D-A-2pyr-I-MB-S-V-W-NH2] | > 5 |
| CC[C@H](C)[C@@H]1NC(=O)[C@H](Cc2ccccn2)NC(=O)[C@H](C)NC(=O)[C@H](CC(=O)O)NC(=O)[C@H](CC(C)C)NC(=O)[C@H]([C@@H](C)CC)NC(=O)[C@](C)(NC(=O)[C@H](C)NC(C)=O)CCCCCCC=CCOC(=O)N2CC[C@@](C(=O)N[C@H](C(=O)N[C@H](C(=O)N[C@@H](Cc3c[nH]c4ccccc34)C(N)=O)C(C)C)[C@@H](C)O)(C2)NC1=O (single isomer, unassigned) [FP0561c Isomer 1, Ac-A-R8-I-L-D-A-2pyr-I-MB-T-V-W-NH2] | > 5 |
| CC[C@H](C)[C@@H]1NC(=O)[C@H](Cc2ccccn2)NC(=O)[C@H](C)NC(=O)[C@H](CC(=O)O)NC(=O)[C@H](CC(C)C)NC(=O)[C@H]([C@@H](C)CC)NC(=O)[C@](C)(NC(=O)[C@H](C)NC(C)=O)CCCCCCC=CCOC(=O)N2CC[C@@](C(=O)N[C@H](C(=O)N[C@H](C(=O)N[C@@H](Cc3c[nH]c4ccccc34)C(N)=O)C(C)C)[C@@H](C)O)(C2)NC1=O (single isomer, unassigned) [FP0561c Isomer 2, Ac-A-R8-I-L-D-A-2pyr-I-MB-T-V-W-NH2] | > 5 |
| CC[C@H](C)[C@@H]1NC(=O)[C@H](Cc2ccccn2)NC(=O)[C@H](C)NC(=O)[C@H](CC(=O)O)NC(=O)[C@H](CC(C)C)NC(=O)[C@H]([C@@H](C)CC)NC(=O)[C@](C)(NC(=O)[C@H](C)NC(C)=O)CCCCCCC=CCOC(=O)N2CC[C@@](C(=O)N[C@H](C(=O)N[C@H](C(=O)N[C@@H](Cc3c[nH]c4ccccc34)C(N)=O)C(C)C)C(C)C)(C2)NC1=O (single isomer, unassigned) [FP0562c Isomer 1, Ac-A-R8-I-L-D-A-2pyr-I-MB-V-V-W-NH2] | > 5 |
| CC[C@H](C)[C@@H]1NC(=O)[C@H](Cc2ccccn2)NC(=O)[C@H](C)NC(=O)[C@H](CC(=O)O)NC(=O)[C@H](CC(C)C)NC(=O)[C@H]([C@@H](C)CC)NC(=O)[C@](C)(NC(=O)[C@H](C)NC(C)=O)CCCCCCC=CCOC(=O)N2CC[C@@](C(=O)N[C@H](C(=O)N[C@H](C(=O)N[C@@H](Cc3c[nH]c4ccccc34)C(N)=O)C(C)C)C(C)C)(C2)NC1=O (single isomer, unassigned) [FP0562c Isomer 2, Ac-A-R8-I-L-D-A-2pyr-I-MB-V-V-W-NH2] | > 5 |
| CC[C@H](C)[C@@H]1NC(=O)[C@H](Cc2ccccn2)NC(=O)[C@H](C)NC(=O)[C@H](CC(=O)O)NC(=O)[C@H](CC(C)C)NC(=O)[C@H]([C@@H](C)CC)NC(=O)[C@](C)(NC(=O)[C@H](C)NC(C)=O)CCCCCCC=CCOC(=O)N2CC[C@@](C(=O)N[C@@H](CC3CCC3)C(=O)N[C@H](C(=O)N[C@@H](Cc3c[nH]c4ccccc34)C(N)=O)C(C)C)(C2)NC1=O (single isomer, unassigned) [FP0565c Isomer 1, Ac-A-R8-I-L-D-A-2pyr-I-MB-Cba-V-W-NH2] | > 5 |
| CC[C@H](C)[C@@H]1NC(=O)[C@H](Cc2ccccn2)NC(=O)[C@H](C)NC(=O)[C@H](CC(=O)O)NC(=O)[C@H](CC(C)C)NC(=O)[C@H]([C@@H](C)CC)NC(=O)[C@](C)(NC(=O)[C@H](C)NC(C)=O)CCCCCCC=CCOC(=O)N2CC[C@@](C(=O)N[C@@H](CC3CCC3)C(=O)N[C@H](C(=O)N[C@@H](Cc3c[nH]c4ccccc34)C(N)=O)C(C)C)(C2)NC1=O (single isomer, unassigned) [FP0565c Isomer 2, Ac-A-R8-I-L-D-A-2pyr-I-MB-Cba-V-W-NH2] | > 5 |

The next lines start with the values.

| EC50 [µM] | SMILES |
| --- | --- |
| > 5 | CC[C@H](C)[C@@H]1NC(=O)[C@H](Cc2ccccn2)NC(=O)[C@H](C)NC(=O)[C@H](CC(=O)O)NC(=O)[C@H](CC(C)C)NC(=O)[C@H]([C@@H](C)CC)NC(=O)[C@](C)(NC(=O)[C@H](C)NC(C)=O)CCCCCCC=CCOC(=O)N2CC[C@@](C(=O)N[C@@H](CO)C(=O)N[C@H](C(=O)N[C@@H](Cc3c[nH]c4ccccc34)C(N)=O)C(C)C)(C2)NC1=O (single isomer, unassigned) [FP0560c Isomer 2, Ac-A-R8-I-L-D-A-2pyr-I-MB-S-V-W-NH2] |
| > 5 | CC[C@H](C)[C@@H]1NC(=O)[C@H](Cc2ccccn2)NC(=O)[C@H](C)NC(=O)[C@H](CC(=O)O)NC(=O)[C@H](CC(C)C)NC(=O)[C@H]([C@@H](C)CC)NC(=O)[C@](C)(NC(=O)[C@H](C)NC(C)=O)CCCCCCC=CCOC(=O)N2CC[C@@](C(=O)N[C@@H](Cc3c[nH]c4ccccc34)C(=O)N[C@H](C(=O)N[C@@H](Cc3c[nH]c4ccccc34)C(N)=O)C(C)C)(C2)NC1=O (single isomer, unassigned) [FP0563c Isomer 1, Ac-A-R8-I-L-D-A-2pyr-I-MB-W-V-W-NH2] |
| > 5 | CC[C@H](C)[C@@H]1NC(=O)[C@H](Cc2ccccn2)NC(=O)[C@H](C)NC(=O)[C@H](CC(=O)O)NC(=O)[C@H](CC(C)C)NC(=O)[C@H]([C@@H](C)CC)NC(=O)[C@](C)(NC(=O)[C@H](C)NC(C)=O)CCCCCCC=CCOC(=O)N2CC[C@@](C(=O)N[C@@H](Cc3c[nH]c4ccccc34)C(=O)N[C@H](C(=O)N[C@@H](Cc3c[nH]c4ccccc34)C(N)=O)C(C)C)(C2)NC1=O (single isomer, unassigned) [FP0563c Isomer 2, Ac-A-R8-I-L-D-A-2pyr-I-MB-W-V-W-NH2] |
| > 5 | CC[C@H](C)[C@@H]1NC(=O)[C@H](Cc2ccccn2)NC(=O)[C@H](C)NC(=O)[C@H](CC(=O)O)NC(=O)[C@H](CC(C)C)NC(=O)[C@H]([C@@H](C)CC)NC(=O)[C@](C)(NC(=O)[C@H](C)NC(C)=O)CCCCCCC=CCOC(=O)N2CC[C@@](C(=O)N[C@@H](Cc3ccc(O)cc3)C(=O)N[C@H](C(=O)N[C@@H](Cc3c[nH]c4ccccc34)C(N)=O)C(C)C)(C2)NC1=O (single isomer, unassigned) [FP0564c Isomer 1, Ac-A-R8-I-L-D-A-2pyr-I-MB-Y-V-W-NH2] |
| > 5 | CC[C@H](C)[C@@H]1NC(=O)[C@H](Cc2ccccn2)NC(=O)[C@H](C)NC(=O)[C@H](CC(=O)O)NC(=O)[C@H](CC(C)C)NC(=O)[C@H]([C@@H](C)CC)NC(=O)[C@](C)(NC(=O)[C@H](C)NC(C)=O)CCCCCCC=CCOC(=O)N2CC[C@@](C(=O)N[C@@H](Cc3ccc(O)cc3)C(=O)N[C@H](C(=O)N[C@@H](Cc3c[nH]c4ccccc34)C(N)=O)C(C)C)(C2)NC1=O (single isomer, unassigned) [FP0564c Isomer 2, Ac-A-R8-I-L-D-A-2pyr-I-MB-Y-V-W-NH2] |
